Reference: patent US20220153746A1, “NITROGEN OXIDE-DONATING PDE-5 AND/OR PDE-6 INHIBITOR COMPOUNDS, AND USES THEREOF” (ILDONG PHARMACEUTICAL CO., LTD., priority 2020, published 2022)
Like-named read-outs stand apart in the source and are kept apart here.

Test: TD Phase (Groups 1 and 3): plasma and ocular tissue concentrations and pharmacokinetics of Compound 18 and its metabolite Compound 4 after once daily ocular instillation of Compound 18 nanosuspension for 7 days
Assay type: in vivo, New Zealand white rabbits
Conditions: for concentration at 2 h / concentration at 4 h / concentration at 8 h / concentration at 0.5 h / concentration at 1 h / Cmax / Tmax / AUC(0-t) / half-life: male, New Zealand white, rabbit; for concentration at 2 h / concentration at 4 h / concentration at 8 h / concentration at 0.5 h / concentration at 1 h: TD Phase; for concentration at 2 h: Group 3, 2 h; for concentration at 4 h: Group 3, 4 h; for concentration at 8 h: Group 3, 8 h; for concentration at 0.5 h: Group 3, 0.5 h; for concentration at 1 h: Group 1, 1 h; for Cmax / Tmax / AUC(0-t) / half-life: topical or ocular; for AUC(0-t): read-out: AUC0-8
Text: This example illustrates the procedures and results for the levels of Compound 18 and its metabolite Compound 4 in plasma and ocular tissues of normotensive rabbits following ocular instillation of Compound 18 once daily for 7 consecutive days.
Twenty five (25) male New Zealand white rabbits were divided into 5 groups of varying amounts of animals per group.
The Test article, Compound 18 was formulated as a 2% nanosuspension in DI water containing 0.2% PS80 (polyoxyethylenesorbitan, monooleate (Tween 80)) and 0.4% HPMC (hydroxypropylmethylcellulose) at pH 6.77. Referred to herein as “Compound 18 nanosuspension.”
The study consisted of three groups (Groups 1-3) of 19 male rabbits (NZW) that underwent once daily morning ocular installation (1 eyedrop) for 7 consecutive days (Day 0-6). Groups 4-5 each consisted of 3 male rabbits (NZW) that were not dosed.
Blood samples (1 mL) were collected from the jugular vein at the intervals set out below for each group. The samples were then inverted several times following collection and held on wet ice until centrifuged. Samples were centrifuged within 60 minutes of collection under refrigeration (set at 5° C. for 10 minutes at 2000 g.
Group 1 (Pilot Study, terminal blood collection): blood was collected from 3 animals at 1 hour post day 7 dose of Compound 18 nanosuspension.
Group 3 (TD Phase, terminal blood collection): blood was collected from 3 animals at 0.5 hour, 3 animals at 2 hours, 3 animals at 4 hours, and 3 animals at 8 hours post day 7 dose of Compound 18 nanosuspension.
Group 1 (Pilot Study): 3 animals were terminated at 1 hour post Day 7 dose of Compound 18 nanosuspension. Following blood collection and termination, ocular tissues (aqueous humor, vitreous humor, cornea, iris/ciliary body, lens, optic nerve, retina, sclera/choroid, and trabecular meshwork) were collected from each animal and the tissue weights were recorded. Note: sclera and choroid were collected together. Iris and ciliary body were collected together.
Group 3 (TD Phase): 3 animals were terminated at 0.5 hour, 3 animals at 2 hours, 3 animals at 4 hours, and 3 animals at 8 hours post Day 7 dose of Compound 18 nanosuspension. Following blood collection and termination, ocular tissues (aqueous humor, vitreous humor, cornea, iris/ciliary body, lens, optic nerve, retina, sclera/choroid, and trabecular meshwork) were collected from each animal and the tissue weights were recorded. Note: sclera and choroid were collected together. Iris and ciliary body were collected together.
Plasma and tissue samples from treated animals (Groups 1-3) were analyzed for Compound 18 and its metabolite Compound 4 concentrations by LC-MS/MS.
Pharmacokinetic analysis was conducted using WinNonlin Version 6.2.1 (Pharsight, Mountain View, Calif.), operating as a validated software system. Noncompartmental analysis was conducted using the extravascular administration model for ocular instillation dosing.
The peak plasma and ocular tissue concentration, time to achieve peak plasma and ocular tissue concentration, half-life, and area under the plasma and ocular tissue concentration-time curve (Cmax, Tmax, T1/2, and AUC) were calculated from the TD phase combined with the pilot study mean animal plasma and ocular tissue concentrations for each sampling time/dose group for Compound 18 and its metabolite Compound 4.
BA Assay: Quantitation Range 0.05 to 100 ng/mL for Compound 18, 0.15 to 100 ng/mL for Compound 4.
3. Pipet 50 μL of each type of pre-spiked ocular tissue samples (AH/VH) for QC samples, 50 μL of incurred aqueous humor, and vitreous humor sample (if applicable) into a 96 well plate.
Ocular Tissues Homogenate Preparation: Incurred rabbit ocular tissues were weighed in Genogrinder tubes (plastic tubes with small beads) at the time of removal from the animal and stored frozen (<−70° C.) until analysis. The rabbit incurred ocular tissues were thawed on wet ice. […]

[1] = iris/ciliary body, topical, 2 mg/day, Mean, read-out: Final Compound 18 Iris/Ciliary Body Conc.
[2] = lens homogenate, topical, 2 mg/day, individual animals, homogenate dilution factor 5, read-out: Compound 18 Lens Homogenate Conc.
[3] = lens, topical, 2 mg/day, Mean, read-out: Final Compound 18 Lens Conc.
[4] = lens, topical, 2 mg/day, individual animals, BQL set to 0, read-out: Final Compound 18 Lens Conc.
[5] = optic nerve, other: ocular instillation (eye drop), 0.798 mg/kg/day, Mean, read-out: Final Compound 18 Optic Nerve Conc.
[6] = plasma, other: ocular instillation (eye drop), 0.8 mg/kg/day, Mean, BQL set to 0, read-out: Compound 18 Plasma Conc.
[7] = plasma, other: ocular instillation (eye drop), 0.8 mg/kg/day, individual animals, read-out: Compound 18 Plasma Conc.
[8] = plasma, other: ocular instillation, 0.8 mg/kg/day, Mean, BQL set to 0, read-out: Compound 18 Plasma Conc.
[9] = retina, other: ocular instillation (eye drop), 0.798 mg/kg/day, Mean, read-out: Final Compound 18 Retina Conc.
[10] = sclera/choroid, other: ocular instillation (eye drop), 0.798 mg/kg/day, Mean, read-out: Final Compound 18 Sclera/Choroid Conc.
[11] = 0.8 mg/kg/day, aqueous humor, Day 7, from mean concentrations
[12] = 0.8 mg/kg/day, cornea, Day 7, from mean concentrations
[13] = 0.8 mg/kg/day, iris/ciliary body, Day 7, from mean concentrations
[14] = 0.8 mg/kg/day, lens, Day 7, from mean concentrations
[15] = 0.8 mg/kg/day, optic nerve, Day 7, from mean concentrations
[16] = 0.8 mg/kg/day, plasma, Day 7, from mean concentrations
[17] = 0.8 mg/kg/day, retina, Day 7, from mean concentrations
[18] = 0.8 mg/kg/day, sclera/choroid, Day 7, from mean concentrations
[19] = 0.8 mg/kg/day, trabecular meshwork, Day 7, from mean concentrations
[20] = 0.8 mg/kg/day, vitreous humor, Day 7, from mean concentrations
[21] = trabecular meshwork, other: ocular instillation (eye drop), 0.798 mg/kg/day, Mean, read-out: Final Compound 18 Trabecular Meshwork Conc.
[22] = vitreous humor, other: ocular instillation (eye drop), 0.8 mg/kg/day, Mean, BQL set to 0, read-out: Compound 18 Vitreous Humor Conc.
[23] = vitreous humor, other: ocular instillation (eye drop), 0.8 mg/kg/day, individual animals, read-out: Compound 18 Vitreous Humor Conc.

SMILES: CCCc1nn(C)c2c(=O)[nH]c(-c3cc(S(=O)(=O)N4CC(CCCO[N+](=O)[O-])C4)ccc3OCC)nc12 [Compound 18, 3-(1-((4-ethoxy-3-(1-methyl-7-oxo-3-propyl-6,7-dihydro-1H-pyrazolo[4,3-d]pyrimidin-5-yl)phenyl)sulfonyl)azetidin-3-yl)propyl nitrate]
- concentration at 2 h [1]: 5.56 ng/g
- concentration at 4 h [1]: 4.87 ng/g
- concentration at 8 h [1]: 0.967 ng/g
- concentration at 0.5 h [2]: 1.27 ng/mL
- concentration at 4 h [2]: 0.0767 ng/mL
- concentration at 8 h (lens, other: ocular instillation (eye drop), 0.798 mg/kg/day, Mean, read-out: Final Compound 18 Lens Conc.): 0 ng/g
- concentration at 1 h [3]: 0 ng/g
- concentration at 1 h [4]: 0 ng/g
- concentration at 0.5 h [3]: 2.12 ng/g
- concentration at 2 h [3]: 0 ng/g
- concentration at 2 h [4]: 0 ng/g
- concentration at 4 h [3]: 0.128 ng/g
- concentration at 8 h [4]: 0 ng/g
- concentration at 1 h (optic nerve homogenate, other: ocular instillation (eye drop), 0.798 mg/kg/day, individual animals, homogenate dilution factor 20, read-out: Compound 18 Optic Nerve Homogenate Conc.): 11.8 ng/mL
- concentration at 1 h [5]: 231 ng/g
- concentration at 1 h (optic nerve, other: ocular instillation (eye drop), 0.798 mg/kg/day, individual animals, read-out: Final Compound 18 Optic Nerve Conc.): 236 ng/g
- concentration at 0.5 h [5]: 110 ng/g
- concentration at 2 h [5]: 378 ng/g
- concentration at 4 h [5]: 128 ng/g
- concentration at 8 h [5]: 61.6 ng/g
- concentration at 2 h [6]: 0.0397 ng/mL
- concentration at 2 h [7]: 0.119 ng/mL
- concentration at 8 h [6]: 0.0172 ng/mL
- concentration at 8 h [7]: 0.0517 ng/mL
- concentration at 1 h [8]: 0.0407 ng/mL
- concentration at 1 h (plasma, other: ocular instillation, 0.8 mg/kg/day, individual animals, read-out: Compound 18 Plasma Conc.): 0.0641 ng/mL
- concentration at 0.5 h [8]: 0.261 ng/mL
- concentration at 0.5 h (retina homogenate, other: ocular instillation (eye drop), 0.798 mg/kg/day, individual animals, homogenate dilution factor 20, read-out: Compound 18 Retina Homogenate Conc.): 0.798 ng/mL
- concentration at 1 h [9]: 18.1 ng/g
- concentration at 0.5 h [9]: 22 ng/g
- concentration at 0.5 h (retina, other: ocular instillation (eye drop), 0.798 mg/kg/day, individual animals, BQL set to 0, read-out: Final Compound 18 Retina Conc.): 16 ng/g
- concentration at 2 h [9]: 34.8 ng/g
- concentration at 4 h [9]: 27.3 ng/g
- concentration at 8 h [9]: 7.17 ng/g
- concentration at 1 h (sclera/choroid homogenate, other: ocular instillation (eye drop), 0.798 mg/kg/day, individual animals, homogenate dilution factor 8, read-out: Compound 18 Sclera/Choroid Homogenate Conc.): 3.89 ng/mL
- concentration at 1 h [10]: 45.3 ng/g
- concentration at 1 h (sclera/choroid, other: ocular instillation (eye drop), 0.798 mg/kg/day, individual animals, read-out: Final Compound 18 Sclera/Choroid Conc.): 31.1 ng/g
- concentration at 0.5 h [10]: 107 ng/g
- concentration at 2 h [10]: 246 ng/g
- concentration at 4 h [10]: 241 ng/g
- concentration at 8 h [10]: 26.8 ng/g
- Cmax [11]: 0.063 ng/mL
- Tmax [11]: 1 h
- AUC(0-t) [11]: 0.0158 ng·h/mL
- Cmax [12]: 181 ng/g
- Tmax [12]: 1 h
- half-life [12]: 1.33 h
- Cmax [13]: 107 ng/g
- Tmax [13]: 1 h
- half-life [13]: 2.25 h
- Cmax [14]: 2.12 ng/g
- Tmax [14]: 0.5 h
- half-life [14]: 0.865 h
- Cmax [15]: 378 ng/g
- Tmax [15]: 2 h
- half-life [15]: 2.43 h
- Cmax [16]: 0.261 ng/mL
- Tmax [16]: 0.5 h
- AUC(0-t) [16]: 0.255 ng·h/mL
- Cmax [17]: 34.8 ng/g
- Tmax [17]: 2 h
- half-life [17]: 2.54 h
- Cmax [18]: 246 ng/g
- Tmax [18]: 2 h
- half-life [18]: 1.76 h
- Cmax [19]: 7.67 ng/g
- Tmax [19]: 1 h
- half-life [19]: 2.64 h
- Cmax [20]: 0.0257 ng/mL
- Tmax [20]: 0.5 h
- AUC(0-t) [20]: 0.0242 ng·h/mL
- Cmax (Cornea, Day 7, Compound 18 0.8 mg/kg ocular instillation once daily, Groups 1 and 3): 181 ng/g
- concentration at 1 h [21]: 7.67 ng/g
- concentration at 0.5 h [21]: 7.01 ng/g
- concentration at 2 h [21]: 11.8 ng/g
- concentration at 4 h [21]: 5.52 ng/g
- concentration at 8 h (trabecular meshwork, other: ocular instillation, 0.8 mg/kg/day, Mean, read-out: Final Compound 18 Trabecular Meshwork Conc.): 1.93 ng/g
- concentration at 0.5 h [22]: 0.0257 ng/mL
- concentration at 0.5 h [23]: 0.0771 ng/mL
- concentration at 2 h [22]: 0.0228 ng/mL
- concentration at 2 h [23]: 0.0683 ng/mL
- AUC0-8 (optic nerve, Day 7, from mean concentrations): 1302 ng·h/g
- AUC0-8 (retina, Day 7, from mean concentrations): 173 ng·h/g
- AUC0-8 (sclera/choroid, Day 7, from mean concentrations): 1234 ng·h/g
- AUC0-8 (trabecular meshwork, Day 7, from mean concentrations): 32.4 ng·h/g
